# Experimental data from PMC6219560, “An Electroencephalography Bioassay for Preclinical Testing of Analgesic Efficacy” (Scientific Reports, 2018).
# Like-named read-outs stand apart in the source and are kept apart here.
# Legend:
# [1] = test system: rats with CCI; design: method as in PMID 23489258; settings: single doses (i.p.), rats with CCI ref 38; cited from earlier work
# [2] = Pharmacokinetics (PK) study: drug plasma concentration in rats by LC-MS/MS; type: in vivo, rat; settings: for concentration at 30 min: geomean (% coefficient of variation), n = 3
# Procedure: Rats (n = 3 per group) were intraperitoneally treated either with 3 or 100 mg/kg of pregabalin, or orally either with 1 or 10 mg/kg of EMA401, or 80 mg/kg of minocycline. At 0.5, 1, and 2 hours after treatment, approximately 150 µL of blood was collected from the jugular vein using a heparinized syringe with a needle. Blood samples were then centrifuged at 1700 g at 4 °C for 10 minutes. Plasma samples were then separated and stored at −20 °C until analysis. Five or 10 μL of plasma samples were diluted with 300 μL of deproteinization solution containing internal standards (5 nM buspirone, 20 nM tolbutamide, 10 nM reserpine in acetonitorile/methanol = 9: 1) and shaken for 5 minutes at room temperature, and centrifuged at 1000 g for 15 minutes. Then, the supernatant was analyzed by LC-MS/MS (Xevo TQ-S Tandem Quadrupole Mass Spectrometry, Waters) for quantification of pregabalin. Data analysis were performed with MassLynx Mass Spectometry Software and TargetLynx Application manager (Waters).
# [3] = cited from earlier work
# [4] = test system: rat model of neuropathic pain (CCI); experiment: Thermal hyperalgesia: paw withdrawal latency (PWL) in rats with CCI; type: in vivo
# Description: (§1) The sciatic nerve was exposed unilaterally after skin incision at the mid-thigh level and blunt dissection of the biceps under deep anesthesia (isoflurane, 3%). Four chromic gut ligatures were tied loosely around the nerve 1 mm apart, and the overlying muscles and skin were closed in layers with 4–0 Ethilon sutures. A minor modification was introduced, consisting of loose ligatures, to minimize nerve damage and deafferentation. Rats with this slightly modified CCI procedure gradually develop typical signs of sensory hypersensitivity associated with neuropathic pain, such as guarding the affected hind paw and thermal hypersensitivity. […] For CCI sham surgery, the sciatic nerve was similarly exposed but not ligated.
# EEG recording was performed first for ~10 min during resting states (no stimulation). The rat was then untethered from the EEG leads and placed in the behavioral apparatus for 15 min acclimation, followed by 5 min PWL testing. Thermal sensitivity of the hindpaw was assessed by measuring the latency of the withdrawal reflex in response to a radiant heat source (Paw withdrawal stimulator, Department of Anesthesiology, University of California, SD). A radiant heat source (4.7 A) was applied to the plantar surface of the hind paw. Paw withdrawal latencies (PWL) in response to 4 thermal stimulations were averaged for each paw. Stimulations to each paw were separated by at least 2 minutes intervals.
# (§2) Values regarding theta power and PWL are reported as mean ± SEM and then converted to ratio relative to naive or CCI values for standardized representation of the data. One sample t-test was used for comparison between naïve and CCI, and paired t-test was used for comparison between CCI and after treatment in the same animals, respectively. Values regarding drug plasma concentration are reported as geomean (% of covariance) or range. Correlation analysis was used to compare EEG with PWL values. A P value < 0.05 was considered statistically significant and denoted by asterisk (*) in figures.
# [5] = test system: rat model of neuropathic pain (CCI); experiment: EEG theta power over primary somatosensory cortex in awake rats with CCI; type: in vivo; settings: for Longitudinal effects on theta power and PWL: single dose 10 mg/kg, n=4
# Procedure: These procedures were performed under anesthesia (isoflurane, 2–3.5%). The head was fixed in a stereotaxic apparatus, and skull was exposed after a small skin incision. A stainless steel screw electrode (0–80 ga 1/8 inch, impedance = 0.6 Ω; component Supply Company, Fort Meade, FL) was placed over intact skull (i.e. epicranially) corresponding to primary somatosensory cortex or S1 contralateral to nerve injury (Bregma −2, 2 mm lateral). Minimal craniotomies were used to place 3 stabilization screws (corresponding to Bregma +1.4, 2 mm bilaterally and Bregma −4.8 mm, midline). The EEG screw was threaded with a silver wire and attached to a female miniature pin connector (A&M Systems, Sequim, WA). All screws were anchored to the skull chronically using dental acrylic (Fig. 1B). Signal reference was provided by a silver wire permanently threaded to the skin at the back of the neck.
# as §1, with “deafferentation.” for “deafferentation. Rats with this slightly modified CCI procedure gradually develop typical signs of sensory hypersensitivity associated with neuropathic pain, such as guarding the affected hind paw and thermal hypersensitivity.”
# Pin connectors from EEG electrode was tethered to preamplifier headstage leading to a multichannel amplifier (iso-DAM8A; WPI Inc, Sarasota, FL). EEG waveforms were amplified (DAM80; World Precision Instruments, Sarasota, FL). […] Rats were allowed to move freely during EEG recording in Plexiglas chambers. After 15 minutes of acclimation, EEG recording was performed. Each EEG recording session was 3 to 5 minutes per animal. […] Only data during awake resting periods (defined as alertness but idle with no locomotor behavior) were further analyzed. Potentials generated due to vigorous myogenic activity (such as scratching) were excluded from analysis. These artifacts can be easily identified on the basis of monitoring the animal’s behavior, voltage amplitude, and spectral frequency typically >30 Hz, and they were further corroborated using an automated artifact detection algorithm recently developed in our laboratory (Supplemental Fig. 3)[59].
# Fast Fourier transform was used to convert EEG waveform from the time domain to the frequency domain. Power values were generated in 27 frequency bins between 3 and 30 Hz. Awake resting periods were selected and Fast Fourier transformed, then average PSD was calculated. Mean PSD theta was computed between 4 and 8 Hz (Fig. 1C). Each ‘period’ was a continuous interval between 7 and 20 seconds, and 3–5 periods were averaged to obtain one value for mean theta per condition.
# as §2
# [6] = test system: pain patients; settings: equivalent human dose High (rat 30 mg/kg i.p.); cited from earlier work
# [7] = cited from earlier work; for Plasma concentration in rat: mean (% coefficient of variation) ref 29; for Plasma concentration in rat (% covariance): mean ref Lau et al.
# [8] = 10 mg/kg p.o., single administration, d14 after CCI, 0.5 hr, n = 6
# [9] = 80 mg/kg p.o., single administration at d14 after CCI, n = 5
smiles,measurement,setting,value
Cc1cc(Cn2cnc3c2CC(C(=O)O)N(C(=O)C(c2ccccc2)c2ccccc2)C3)ccc1N(C)C (stereo not shown) [EMA200],Anti-allodynic effects,[1],dose-dependent anti-allodynic effects
COc1ccc2c(c1OCc1ccccc1)C[C@@H](C(=O)O)N(C(=O)C(c1ccccc1)c1ccccc1)C2 [EMA400],Anti-allodynic effects,[1],dose-dependent anti-allodynic effects
COc1ccc2c(c1OCc1ccccc1)C[C@@H](C(=O)O)N(C(=O)C(c1ccccc1)c1ccccc1)C2 [EMA401],Distribution,"[2]; rat, in vivo",peripherally restricted
same,Exposure after daily administration,"[2]; rat, in vivo, po",not cumulative
same,Corresponding plasma concentration in human: Cmax,"[3]; 200 mg/day, mean (% covariance) ref Rice et al.",Therapeutic dose Similar to Cmax of 200 mg/day: 1.01 (65) mg/mL*b [Rice et al.]
same,"Plasma concentration, clinical data",[3]; human ref 18,1.01 (65) μg/mL
same,PWL relative to CCI,"[4]; 10 mg/kg p.o. daily starting d7 after CCI, day 7",1.60 ± 0.19
same,PWL relative to CCI,"[4]; 10 mg/kg p.o. daily starting d7 after CCI, day 11",2.13 ± 0.28
same,PWL relative to CCI,"[4]; 10 mg/kg p.o. daily starting d7 after CCI, day 14",2.27 ± 0.30
same,PWL relative to CCI,[4]; [8],1.26 ± 0.11
same,Theta power relative to CCI,"[5]; 10 mg/kg p.o. daily starting d7 after CCI, day 7, n = 6",0.76 ± 0.07
same,Theta power relative to CCI,"[5]; 10 mg/kg p.o. daily starting d7 after CCI, day 11, n = 6",0.77 ± 0.08
same,Theta power relative to CCI,"[5]; 10 mg/kg p.o. daily starting d7 after CCI, day 14, n = 6",0.87 ± 0.12
same,Theta power relative to CCI,[5]; [8],0.71 ± 0.13
same,Longitudinal effects on theta power and PWL,"[5]; CCI d7, 30 min after administration",analgesic effects
same,Longitudinal effects on theta power and PWL,"[5]; CCI d7, 2 hours after administration",tendency for reversal
"CN(C)c1ccc(O)c2c1C[C@H]1C[C@H]3[C@H](N(C)C)C(O)=C(C(N)=O)C(=O)[C@@]3(O)C(O)=C1C2=O [Minocycline, minocycline]",Corresponding plasma concentration in human: clinical dose,"[3]; 200 mg/day, range ref Sumitani et al.",Therapeutic dose (inconclusive) Higher than clinical (200 mg/day) dose: 3.19–4.59 mg/mL*a [Sumitani et al.]
same,PWL relative to CCI,"[4]; 80 mg/kg p.o. daily treatment starting d7 CCI, day 7",0.91 ± 0.05
same,PWL relative to CCI,"[4]; 80 mg/kg p.o. daily treatment starting d7 CCI, day 10",1.00 ± 0.08
same,PWL relative to CCI,"[4]; 80 mg/kg p.o. daily treatment starting d7 CCI, day 14",0.94 ± 0.04
same,PWL relative to CCI,[4]; [9],1.08 ± 0.10
same,Theta power relative to CCI,"[5]; 80 mg/kg p.o. daily starting d7 CCI, day 11, n = 7",0.95 ± 0.11
same,Theta power relative to CCI,"[5]; 80 mg/kg p.o. daily starting d7 CCI, day 14, n = 5",1.37 ± 0.45
same,Theta power relative to CCI,"[5]; 80 mg/kg p.o., d7 after CCI (first of daily doses), n = 7",0.71 ± 0.06
same,Theta power relative to CCI,[5]; [9],0.96 ± 0.13
"CC(C)C[C@H](CN)CC(=O)O [Pregabalin, pregabalin]",Linearity of plasma concentration at 30 min,"[2]; doses of 3 and 100 mg/kg i.p., compared with previous report (10 and 30 mg/kg)",good linearity
same,concentration at 30 min,"[2]; rat, in vivo, 3 mg/kg i.p.",3.29 µg/mL
same,concentration at 30 min,"[2]; rat, in vivo, 100 mg/kg i.p.",99.3 µg/mL
same,Cmax in humans,[3]; 150 mg/day ref 31,3.18 (21) μg/mL
same,Corresponding plasma concentration in human: Cmax,[3]; 150 mg/day ref Chew et al.,Sub-therapeutic dose Similar to Cmax of 150 mg/day: 3.18 (21) mg/mL [Chew et al.]
same,Cmax in humans,[3]; 300 mg/day ref 31,6.39 (20) μg/mL
same,Cmax in humans,[3]; 600 mg/day ref 31,11.4 (17) μg/mL
same,Corresponding plasma concentration in human: steady state level,"[3]; 600 mg/day, range ref Dworkin et al.",Supra-therapeutic dose Slightly higher than steady state level of 600 mg/day: 0.244–18.6 mg/mL*a [Dworkin et al.]
same,Steady state level in humans,"[3]; 600 mg/day, represented as range ref 33",0.244 to 18.6 µg/mL
same,Clinical efficacy (VAS),[6],Side effects
same,Plasma concentration in rat,"[7]; 10 mg/kg i.p., 30 min",11.3 (4.9) μg/mL
same,Plasma concentration in rat (% covariance),"[7]; 10 mg/kg, observation time 30 min",11.3 (4.9)*b mg/mL
same,Plasma concentration in rat,[7]; 30 mg/kg i.p.,33.0 (5.4) μg/mL
same,Plasma concentration in rat (% covariance),[7]; 30 mg/kg,33.0 (5.4)*b mg/mL
same,PWL relative to CCI,"[4]; 3 mg/kg i.p., single dose, d14 after CCI, 0.5 h, mean ± SEM ratio",1.42 ± 0.10
same,PWL relative to CCI,"[4]; 10 mg/kg i.p., single dose, d14 after CCI, 0.5 h, mean ± SEM ratio",1.54 ± 0.08
same,PWL relative to CCI,"[4]; 30 mg/kg i.p., single dose, d14 after CCI, 0.5 h, mean ± SEM ratio",1.47 ± 0.14
same,Theta power relative to CCI,"[5]; 3 mg/kg i.p., single dose, d14 after CCI, 0.5 h, mean ± SEM ratio, n = 7",0.91 ± 0.11
same,Theta power relative to CCI,"[5]; 10 mg/kg i.p., single dose, d14 after CCI, 0.5 h, mean ± SEM ratio, n = 7",0.83 ± 0.12
same,EEG efficacy (θ power),"[5]; 30 mg/kg (i.p.), pain phase Late",Side effects
same,Theta power relative to CCI,"[5]; 30 mg/kg i.p., single dose, d14 after CCI, 0.5 h, mean ± SEM ratio, n = 7",1.24 ± 0.29
